# Data reported in patent US20080319065A1, “Systemic and Intrathecal Effects of a Novel Series of Phospholipase A2 Inhibitors on Hyperalgesia and Spinal Pge2 Release” (The Regents of the University of California, priority 2005, published 2008).
# Entries after “also recorded” stand apart in the source; their conditions may differ.
# What was measured:
# [1] = molecular target: T1, GV sPLA2 (Homo sapiens, UniProt P39877); assay: GV sPLA2 activity assay; format: biochemical; settings: for inhibition at 0.091 mole fraction: read-out: sPLA2 inh., percent inhibition; for efficacy against sPLA2: at 0.091 mole fraction
# T1 sequence (P39877 21-138): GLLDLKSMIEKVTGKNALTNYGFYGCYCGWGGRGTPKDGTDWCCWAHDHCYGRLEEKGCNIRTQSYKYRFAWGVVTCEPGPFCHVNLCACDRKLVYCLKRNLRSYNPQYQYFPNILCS
# Procedure: GV sPLA2 activity was measured in a similar assay. The final assay buffer was composed of 50 mM Tris-HCl (pH 8.0) and 5 mM CaCl2. Each assay was performed in 500 μL total volume made up of 100 μL of 5× substrate solution (20 μL of 10 mM Triton X-100 and 80 μL assay buffer), 390 μL assay buffer, 10 μL GV sPLA2 solution (1 μL of 40 ng/μL stock and 9 μL assay buffer), and 5 μL of DMSO or 2-oxoamide in DMSO. The 5× substrate solution was prepared by drying down the phospholipids (in organic solvent) with N2. The appropriate volume of 10 mM Triton X-100 was added, heated and vortexed until clear. Then assay buffer was added to make a 5× substrate solution. The final mixed micelles were at 400 μM Triton X-100 and 100 μM DPPC (of which 100,000 cpm of ^14C-DPPC).
# [2] = molecular target: T2, Group VIA iPLA2 (GVIA PLA2) (Homo sapiens, UniProt O60733); assay: In vitro Group VIA iPLA2 mixed micelle assay; format: biochemical; settings: for inhibition at 0.091 mole fraction: read-out: iPLA2 inh, percent inhibition; for Inhibition of GVIA PLA2: at highest dose; for iPLA2 inh, XI(50): Table 3
# T2 sequence (O60733 1-806): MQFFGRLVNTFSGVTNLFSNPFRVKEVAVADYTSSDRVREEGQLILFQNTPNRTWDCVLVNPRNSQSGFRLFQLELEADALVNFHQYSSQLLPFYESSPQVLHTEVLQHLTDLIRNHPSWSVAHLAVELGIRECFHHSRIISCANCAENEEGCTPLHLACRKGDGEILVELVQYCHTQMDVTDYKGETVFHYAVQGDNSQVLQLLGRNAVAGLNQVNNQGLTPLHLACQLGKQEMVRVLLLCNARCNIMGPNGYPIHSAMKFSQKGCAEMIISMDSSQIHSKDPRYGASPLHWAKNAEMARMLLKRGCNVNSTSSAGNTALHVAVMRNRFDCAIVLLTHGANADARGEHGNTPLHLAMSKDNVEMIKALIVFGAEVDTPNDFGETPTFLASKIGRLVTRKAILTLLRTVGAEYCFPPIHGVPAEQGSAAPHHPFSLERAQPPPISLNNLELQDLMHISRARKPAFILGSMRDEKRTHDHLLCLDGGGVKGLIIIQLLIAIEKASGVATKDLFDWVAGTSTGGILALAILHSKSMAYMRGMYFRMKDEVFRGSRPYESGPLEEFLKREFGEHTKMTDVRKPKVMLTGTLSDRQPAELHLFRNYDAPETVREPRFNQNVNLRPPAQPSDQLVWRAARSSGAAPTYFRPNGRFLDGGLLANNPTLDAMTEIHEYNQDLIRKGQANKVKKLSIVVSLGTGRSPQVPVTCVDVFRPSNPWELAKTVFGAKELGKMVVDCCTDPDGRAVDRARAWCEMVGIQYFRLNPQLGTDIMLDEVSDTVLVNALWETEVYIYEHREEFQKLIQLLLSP
# Procedure: (§1) Numerous 2-oxoamides were tested for inhibition of PLA2s in in vitro assay systems. The data, summarized in Tables 1a, 1b and 2 are represented as XI(50) values unless otherwise noted. XI(50) is defined as the inhibitor concentration that produced 50% inhibition. XI(50) is used as opposed to the more common IC50 because GIVA and GVIA PLA2 are active at a two-dimensional lipid interface rather than in three-dimensional solution. (Deems, Anal. Biochem., 287:1-16, 2000). The 2-oxoamide inhibitors likely partition to the micelle interface and therefore must be represented as a percentage of surface concentration (mole fraction) as opposed to bulk concentration (molar units). (Kokotos, et al., J. Med. Chem., 45:2891-2893, 2002).
# (§2) In vitro Group IV cPLA2 and Group VI iPLA2 assays were done as previously described (Kokotos, et al., supra, 2002). Briefly, 100 μM lipid substrate and 100,000 cpm radiolabeled analog were dried down under N2 and dissolved in assay buffer containing 400 μM Triton X-100 to yield a mixed micelle substrate solution. Inhibitors dissolved in DMSO were added to the reaction tubes and allowed to incubate with substrate for five minutes at 40° C. Pure enzyme was added to yield a final volume of 500 μl, and digestion was carried out at 40° C. for 30 minutes. Reactions were quenched and extracted using the Dole method and products were quantified by liquid scintillation counting. Percent inhibition was determined at a range of inhibitor mole fraction concentrations for XI(50) calculations.
# [3] = molecular target: T3, Group IVA cPLA2 (GIVA PLA2) (Homo sapiens, UniProt P47712); assay: In vitro Group IVA cPLA2 mixed micelle assay; format: biochemical; settings: for cPLA2 inh, XI(50): Table 3; for inhibition at 0.091 mole fraction: read-out: cPLA2 inh, percent inhibition (converted); for Inhibition of GIVA PLA2: at highest dose
# T3 sequence (P47712 1-749): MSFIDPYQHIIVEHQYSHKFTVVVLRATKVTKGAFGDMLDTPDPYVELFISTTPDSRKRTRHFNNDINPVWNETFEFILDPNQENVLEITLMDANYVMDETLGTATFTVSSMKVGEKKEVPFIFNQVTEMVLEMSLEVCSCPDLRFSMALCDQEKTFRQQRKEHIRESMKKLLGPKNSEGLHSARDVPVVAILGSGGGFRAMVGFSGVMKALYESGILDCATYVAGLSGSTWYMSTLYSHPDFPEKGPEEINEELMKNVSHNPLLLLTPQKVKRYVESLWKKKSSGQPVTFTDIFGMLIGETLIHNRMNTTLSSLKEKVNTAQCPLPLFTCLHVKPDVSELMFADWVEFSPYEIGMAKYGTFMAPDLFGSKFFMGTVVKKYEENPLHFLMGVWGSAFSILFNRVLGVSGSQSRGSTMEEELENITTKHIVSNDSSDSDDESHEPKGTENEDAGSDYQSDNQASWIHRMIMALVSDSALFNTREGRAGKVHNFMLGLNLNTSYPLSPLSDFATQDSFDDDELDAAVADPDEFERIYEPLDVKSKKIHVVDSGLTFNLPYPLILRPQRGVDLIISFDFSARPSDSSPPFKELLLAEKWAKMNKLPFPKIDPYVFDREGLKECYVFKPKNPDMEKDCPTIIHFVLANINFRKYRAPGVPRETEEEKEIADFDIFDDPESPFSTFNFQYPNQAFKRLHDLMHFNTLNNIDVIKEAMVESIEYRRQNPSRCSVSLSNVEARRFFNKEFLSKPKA
# Procedure: as §1, §2
SMILES,inhibition at 0.091 mole fraction [1],inhibition at 0.091 mole fraction [2],inhibition at 0.091 mole fraction [3],other results
CCOC(=O)CCCNC(=O)C(=O)CCc1ccc(OCC)cc1 [AX090],51.7%,67.3%,–,"cPLA2 inh, XI(50) [3]: XI(50) =0.050 ± .002 mole fraction"
CCC(=O)C(=O)NCCCCC(=O)OC(C)(C)C [AX105],96.3%,61.7%,73.8%,–
C=CCOC(=O)CCCNC(=O)C(=O)CC [AX126],37.9%,63.2%,52.9%,–
NC(=O)C(=O)CCCCc1ccccc1 [AX015],–,–,–,"efficacy against sPLA2 [1]: 45.3%; inhibition of GVIA PLA2 (iPLA2), in words [2]: neither exhibits significant inhibition; also recorded: no significant activity; Inhibition of GVIA PLA2 [2]: ND (negligible inhibition (0-25%) at highest dose); inhibition of GIVA PLA2 (cPLA2), in words [3]: neither exhibits significant inhibition; also recorded: no significant activity; Inhibition of GIVA PLA2 [3]: ND (negligible inhibition (0-25%) at highest dose)"
CCOC(=O)c1ccc(NC(=O)C(=O)CC)cc1 [AX091],66.5%,14.3%,–,"cPLA2 inh, XI(50) [3]: XI(50) =0.029 ± .016 mole fraction"
CCC(=O)C(=O)NCCCC(=O)OCc1ccccc1 [AX116],57.5%,10.7%,34.8%,–
CCOCCCCNC(=O)C(=O)CC [AX081],76.5%,50.9%,–,"cPLA2 inh, XI(50) [3]: XI(50) =0.018 ± .016 mole fraction"
"COC(=O)CCCNC(=O)C(=O)CCCCc1ccccc1 [AX038, 4-(2-Oxo-6-phenyl-hexanoylamino)-butyric acid methyl ester]",–,–,–,melting point: 52 to 54 °C; Inhibition of GVIA PLA2 [2]: ND (negligible inhibition (0-25%) at highest dose); Inhibition of GIVA PLA2 [3]: ND (negligible inhibition (0-25%) at highest dose)
CCCC[C@@H](COCC(=O)OC(C)(C)C)NC(=O)C(=O)CC [AX122],57.2%,81%,43.6%,–
CCC(=O)C(=O)NCCC(=O)OC(C)(C)C [AX113],100%,54%,79.2%,efficacy against sPLA2 [1]: about 100%
"COC(=O)CCCNC(=O)C(=O)CCCc1ccccc1 [AX037, 4-(2-Oxo-5-phenyl-pentanoylamino)-butyric acid methyl ester]",–,–,–,melting point: 30 to 31 °C; Inhibition of GVIA PLA2 [2]: ND (negligible inhibition (0-25%) at highest dose); Inhibition of GIVA PLA2 [3]: ND (negligible inhibition (0-25%) at highest dose)
CCOC(=O)CCNC(=O)C(=O)CC [AX104],58.8%,50.6%,44%,–
CCNC(=O)C(=O)CC [AX002],–,–,–,"inhibition of GVIA PLA2 (iPLA2), in words [2]: limited inhibition of GVIA PLA2; Inhibition of GVIA PLA2 [2]: LD^b (limited inhibition (25-50%) at highest dose); inhibition of GIVA PLA2 (cPLA2), in words [3]: no detectable inhibition of GIVA PLA2; Inhibition of GIVA PLA2 [3]: ND (negligible inhibition (0-25%) at highest dose)"
CCC[C@@H](CCCCC(=O)OCC)NC(=O)C(=O)CC [AX065],23.2%,–,61.8%,"iPLA2 inh, XI(50) [2]: XI(50) =0.054 ± .016 mole fraction"
CC/C=C\CC(=O)C(=O)NCCCC(=O)OCC [AX110],96.6%,52.8%,69.9%,–
CC/C=C\CC(=O)C(=O)NCCCC(=O)OC(C)(C)C [AX055],85.3%,–,–,"iPLA2 inh, XI(50) [2]: XI(50) =0.054 ± .004 mole fraction; cPLA2 inh, XI(50) [3]: XI(50) =0.014 ± .009 mole fraction"
CCNC(=O)C(=O)CC [AX009],–,–,–,"inhibition of GVIA PLA2 (iPLA2), in words [2]: limited inhibition of GVIA PLA2; Inhibition of GVIA PLA2 [2]: LD (limited inhibition (25-50%) at highest dose); inhibition of GIVA PLA2 (cPLA2), in words [3]: no detectable inhibition of GIVA PLA2; Inhibition of GIVA PLA2 [3]: ND (negligible inhibition (0-25%) at highest dose)"
CCOC(=O)CCCCNC(=O)C(=O)CC [AX102],47.1%,35.3%,30.6%,–
CCC[C@@H](COCC(=O)OCC)NC(=O)C(=O)CC [AX128],80.6%,92.8%,52.3%,–
CCC(=O)C(=O)NCC(=O)OC(C)(C)C [AX111],95.9%,53.1%,79.6%,–
CCCCC(=O)CCCNC(=O)C(=O)CC [AX082],7.4%,–,31.8%,–
CCC[C@@H](/C=C/C(=O)OCC)NC(=O)C(=O)CC [AX093],78.3%,66.5%,–,"cPLA2 inh, XI(50) [3]: XI(50) =0.031 ± .011 mole fraction"
CCOC(=O)CNC(=O)C(=O)CC [AX114],99.8%,61.6%,73.7%,–
CCC[C@H](NC(=O)C(=O)CC)C(=O)NCC(=O)OCC [AX127],63.1%,93.9%,72.6%,–
CCCC[C@H](NC(=O)C(=O)CC)C(=O)NCC(=O)OC(C)(C)C [AX121],58.5%,89.6%,72%,–
CCC(=O)C(N)=O [AX001],–,–,–,"inhibition of GVIA PLA2 (iPLA2), in words [2]: neither exhibits significant inhibition; Inhibition of GVIA PLA2 [2]: ND^a (negligible inhibition (0-25%) at highest dose); inhibition of GIVA PLA2 (cPLA2), in words [3]: neither exhibits significant inhibition; Inhibition of GIVA PLA2 [3]: ND (negligible inhibition (0-25%) at highest dose)"
